Measured values taken from ChEMBL document CHEMBL1201862, “PubChem BioAssay data set” (2004).
Calls of active or inactive are those of the source.

Tests used:
[1] = target: Beta-galactosidase (Escherichia coli, UniProt Q8VNN2); assay: PubChem AID 485352; assay type: functional
[2] = target: T1, Type-1 angiotensin II receptor (Homo sapiens, UniProt P30556); assay: AT1 receptor antagonists, dose response, selectivity assay for APJ receptor antagonist project, cell-based, uHTS hits (AID 463214); assay type: functional;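 note: antagonist potency against angiotensin II stimulated AT1 response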
T1 sequence (P30556 whole entry): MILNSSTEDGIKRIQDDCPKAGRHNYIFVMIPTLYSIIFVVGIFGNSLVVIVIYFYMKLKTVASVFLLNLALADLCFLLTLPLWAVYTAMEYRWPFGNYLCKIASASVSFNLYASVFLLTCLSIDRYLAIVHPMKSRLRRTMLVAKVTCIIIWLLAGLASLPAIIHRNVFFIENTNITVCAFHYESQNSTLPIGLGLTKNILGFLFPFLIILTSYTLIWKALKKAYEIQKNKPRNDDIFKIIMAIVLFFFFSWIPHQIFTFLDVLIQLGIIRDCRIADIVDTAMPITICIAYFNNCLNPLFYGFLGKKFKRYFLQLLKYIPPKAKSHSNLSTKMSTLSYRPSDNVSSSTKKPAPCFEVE

[3] = target: Lysine-specific demethylase 4C (Homo sapiens, UniProt Q9H3R0); assay: GASC-1 (JMJD2C) histone demethylase inhibitors, dose response, biochemical, DELFIA europium, cherry-picked samples (AID 488835); assay type: functional
[4] = target: T2, Apoptotic protease-activating factor 1 (Homo sapiens, UniProt O14727); assay type: functional
T2 sequence (O14727 whole entry): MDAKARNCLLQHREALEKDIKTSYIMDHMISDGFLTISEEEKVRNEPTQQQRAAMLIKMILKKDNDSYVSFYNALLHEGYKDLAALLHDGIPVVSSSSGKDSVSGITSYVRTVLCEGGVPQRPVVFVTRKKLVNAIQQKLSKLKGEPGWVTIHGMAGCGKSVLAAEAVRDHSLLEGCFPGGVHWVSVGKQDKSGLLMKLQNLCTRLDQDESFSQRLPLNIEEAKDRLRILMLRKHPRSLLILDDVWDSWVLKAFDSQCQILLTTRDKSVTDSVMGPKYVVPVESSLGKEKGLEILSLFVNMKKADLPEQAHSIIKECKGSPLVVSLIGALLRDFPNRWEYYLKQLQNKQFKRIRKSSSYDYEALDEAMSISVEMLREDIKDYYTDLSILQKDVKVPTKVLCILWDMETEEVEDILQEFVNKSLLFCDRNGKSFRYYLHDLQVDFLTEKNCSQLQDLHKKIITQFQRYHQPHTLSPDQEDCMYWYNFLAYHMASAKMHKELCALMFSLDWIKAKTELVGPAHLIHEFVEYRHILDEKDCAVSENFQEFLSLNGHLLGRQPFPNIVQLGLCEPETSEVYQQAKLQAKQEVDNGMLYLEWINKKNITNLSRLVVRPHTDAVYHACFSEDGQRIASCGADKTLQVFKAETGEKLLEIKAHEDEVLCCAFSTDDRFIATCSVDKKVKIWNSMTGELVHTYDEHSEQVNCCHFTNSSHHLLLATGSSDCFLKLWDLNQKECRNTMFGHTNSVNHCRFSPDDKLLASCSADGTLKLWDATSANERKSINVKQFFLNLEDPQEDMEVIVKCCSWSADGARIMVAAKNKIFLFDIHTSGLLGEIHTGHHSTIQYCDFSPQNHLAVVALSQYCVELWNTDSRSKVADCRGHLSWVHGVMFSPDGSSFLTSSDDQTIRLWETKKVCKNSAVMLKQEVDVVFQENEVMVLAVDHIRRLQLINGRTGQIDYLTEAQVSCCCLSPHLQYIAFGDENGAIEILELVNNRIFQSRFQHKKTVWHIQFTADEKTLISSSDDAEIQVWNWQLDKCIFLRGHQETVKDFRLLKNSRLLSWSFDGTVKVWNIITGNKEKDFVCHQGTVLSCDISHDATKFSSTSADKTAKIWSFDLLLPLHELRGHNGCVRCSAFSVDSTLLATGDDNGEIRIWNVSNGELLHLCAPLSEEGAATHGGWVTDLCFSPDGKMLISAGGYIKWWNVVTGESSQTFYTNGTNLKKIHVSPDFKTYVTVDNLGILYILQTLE

[5] = target: T3, Histone-lysine N-methyltransferase NSD2 (Homo sapiens, UniProt O96028); assay type: biochemical
T3 sequence (O96028 whole entry): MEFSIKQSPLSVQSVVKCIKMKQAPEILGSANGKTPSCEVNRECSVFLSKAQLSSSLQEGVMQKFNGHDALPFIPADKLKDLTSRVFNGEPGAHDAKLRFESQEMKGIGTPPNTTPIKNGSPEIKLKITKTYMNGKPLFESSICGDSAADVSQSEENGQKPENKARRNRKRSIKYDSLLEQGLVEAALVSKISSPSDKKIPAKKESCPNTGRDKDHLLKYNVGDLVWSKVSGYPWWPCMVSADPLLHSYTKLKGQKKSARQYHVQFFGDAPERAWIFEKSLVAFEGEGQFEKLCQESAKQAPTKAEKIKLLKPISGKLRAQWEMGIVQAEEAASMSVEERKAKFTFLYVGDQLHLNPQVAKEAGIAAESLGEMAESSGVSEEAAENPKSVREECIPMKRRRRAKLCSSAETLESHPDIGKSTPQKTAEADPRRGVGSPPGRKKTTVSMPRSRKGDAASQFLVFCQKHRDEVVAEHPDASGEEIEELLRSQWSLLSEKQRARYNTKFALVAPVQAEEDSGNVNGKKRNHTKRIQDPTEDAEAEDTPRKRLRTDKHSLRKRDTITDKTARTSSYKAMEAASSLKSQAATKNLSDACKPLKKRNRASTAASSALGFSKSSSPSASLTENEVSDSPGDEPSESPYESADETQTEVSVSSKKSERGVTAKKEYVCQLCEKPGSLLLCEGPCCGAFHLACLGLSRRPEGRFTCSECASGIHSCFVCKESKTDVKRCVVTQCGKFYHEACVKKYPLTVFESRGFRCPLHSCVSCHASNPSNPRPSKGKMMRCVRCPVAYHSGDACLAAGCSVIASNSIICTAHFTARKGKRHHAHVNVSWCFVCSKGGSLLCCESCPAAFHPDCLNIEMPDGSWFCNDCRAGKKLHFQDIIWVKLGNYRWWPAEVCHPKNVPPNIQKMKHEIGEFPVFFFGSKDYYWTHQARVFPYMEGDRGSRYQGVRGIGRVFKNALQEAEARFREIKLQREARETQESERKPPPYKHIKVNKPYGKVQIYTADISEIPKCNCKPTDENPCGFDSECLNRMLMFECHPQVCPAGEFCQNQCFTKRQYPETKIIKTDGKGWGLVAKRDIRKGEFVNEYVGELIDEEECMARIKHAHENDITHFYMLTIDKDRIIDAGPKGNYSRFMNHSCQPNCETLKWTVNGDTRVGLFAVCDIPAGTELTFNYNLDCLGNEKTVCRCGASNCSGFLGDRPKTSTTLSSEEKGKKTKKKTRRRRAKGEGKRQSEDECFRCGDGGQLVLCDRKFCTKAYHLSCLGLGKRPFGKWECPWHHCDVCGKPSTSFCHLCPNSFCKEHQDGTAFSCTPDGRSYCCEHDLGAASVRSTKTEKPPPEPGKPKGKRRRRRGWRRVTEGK

[6] = test system: HEK293; assay: inhibitors of LMP1-driven NF-kB reporter, dose response, cell-based, HEK293, luciferase, cherry-pick (AID 588343); assay type: functional; conditions: Homo sapiens
[7] = test system: HEK293; assay: cytotoxicity in HEK293T NF-kB-Luc cells, SAR follow-up, cytotoxicity control for NF-kB activator project, cell-based, resazurin fluorescence (AID 493251); assay type: functional; conditions: Homo sapiens
[8] = target: Latent membrane protein 1 (Human herpesvirus 4 (strain B95-8), UniProt P03230); assay: TES1-eGFP NF-kB reporter inhibition versus Tet-On dsRED, dose response, selectivity assay for LMP1 NF-kB inhibitor project, imaging, HEK293T, dual-color eGFP/dsRED, cherry-picks (AID 588398); assay type: functional, cell-based
[9] = test system: Jurkat; assay: SAR Analysis of small molecule inhibitors of T-cell specific antigen receptor-induced NF-kB activation in a Jurkat cell line using a luminescence assay - Set 2. [Related pubchem assays (depositor defined):AID435003, AID435012, AID465]; assay type: functional, cell-based; conditions: Homo sapiens
[10] = test system: HEK293; assay: SAR Analysis of small molecule inhibitors of T-cell specific antigen receptor-induced NF-kB activation in a HEK-293T cell line using a luminescence assay - Set 2. [Related pubchem assays (depositor defined):AID435003, AID435012, AID489026]; assay type: functional, cell-based; conditions: Homo sapiens
[11] = Shn3 3'UTR reporter inhibitors, dose response, cell-based, Clone20 osteoblasts, firefly luciferase, cherry-picked (AID 624132); assay type: functional;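 note: firefly luciferase luminescence from reporter carrying the Shn3 3'UTR in osteoblasts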
[12] = HepG2 cell cytotoxicity, dose response, cytotoxicity control for Shn3 inhibitor project, CellTiter-Glo, cherry-picked (AID 624134); assay type: functional, cell-based
[13] = control 3'UTR Renilla luciferase suppression, dose response, counter-screen for Shn3 inhibitor project, cell-based, Clone20-Shn3RL, cherry-picked (AID 624133); assay type: functional
[14] = NIH-3T3 fibroblast cytotoxicity, dose response, cytotoxicity control, cell-based, fluorescence, Alamar Blue, secondary assay (AID 2327); assay type: functional;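 note: NIH-3T3 mouse fibroblasts cultured with fluconazole at 8 µg/mL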
[15] = C. albicans growth with fluconazole, confirmation, fluorescence, retest (AID 2467); assay type: functional, cell-based
[16] = target: Eukaryotic translation initiation factor 4E (Mus musculus, UniProt P63073); assay: eIF4E–eIF4G protein interaction inhibitors, dose response, biochemical, TR-FRET (AID 855); assay type: functional;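 note: potency for disrupting eIF4E binding to eIF4GI seen as loss of FRET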
[17] = target: T4, Microphthalmia-associated transcription factor (Homo sapiens, UniProt O75030); assay: TRPM1 promoter luciferase signal decrease, dose response, MITF inhibitor project, cell-based, SK-MEL-5, cherry-picked, set 3 (AID 493073); assay type: functional
T4 sequence (O75030 whole entry): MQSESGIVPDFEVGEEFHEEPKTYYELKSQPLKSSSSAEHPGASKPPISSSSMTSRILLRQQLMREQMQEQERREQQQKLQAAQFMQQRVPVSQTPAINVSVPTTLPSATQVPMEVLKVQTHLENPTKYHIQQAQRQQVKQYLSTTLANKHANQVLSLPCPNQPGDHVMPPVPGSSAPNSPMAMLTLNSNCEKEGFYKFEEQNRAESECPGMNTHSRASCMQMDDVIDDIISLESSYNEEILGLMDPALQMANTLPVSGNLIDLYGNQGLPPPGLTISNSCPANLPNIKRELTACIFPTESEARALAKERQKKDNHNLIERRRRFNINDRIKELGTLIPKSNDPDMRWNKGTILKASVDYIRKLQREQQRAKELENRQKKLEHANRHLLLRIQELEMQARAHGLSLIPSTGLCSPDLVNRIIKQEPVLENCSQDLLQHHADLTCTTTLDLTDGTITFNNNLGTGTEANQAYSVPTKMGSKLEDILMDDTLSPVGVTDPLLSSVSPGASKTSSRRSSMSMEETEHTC

[18] = target: T5, Endoribonuclease toxin MazF (Escherichia coli K-12, UniProt P0AE70); assay: MazF endoribonuclease activators, SAR follow-up, biochemical, fluorescence, single-stranded RNA substrate (AID 588603); assay type: functional
T5 sequence (P0AE70 whole entry): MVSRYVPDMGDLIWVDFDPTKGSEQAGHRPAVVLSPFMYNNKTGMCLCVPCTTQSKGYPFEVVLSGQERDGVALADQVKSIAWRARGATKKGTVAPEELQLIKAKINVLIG

[19] = target: T5, Endoribonuclease toxin MazF; assay: MazF toxin RNase activators, dose response, biochemical, fluorescence, single-stranded RNA substrate, uHTS hits (AID 588481); assay type: functional
[20] = test system: MEF; assay: SAR analysis of small molecule cytotoxicity of MazEF TA System activators in embryonic fibroblast (MEF) cells. [Related pubchem assays (depositor defined):AID504720, AID504743]; assay type: functional; conditions: Mus musculus
[21] = target: T5, Endoribonuclease toxin MazF; assay: SAR analysis of small molecule activators of the MazEF TA System via a fluorescence-based single-stranded RNase assay counterscreen. [Related pubchem assays (depositor defined):AID504720, AID504743]; assay type: functional
[22] = target: T5, Endoribonuclease toxin MazF; assay: fluorescent RNA oligo signal without MazF, dose response, counter-screen for MazEF activator project, biochemical, fluorescence, single-stranded RNase substrate (AID 588502); assay type: functional

Latent membrane protein 1, sequence (P03230 whole entry): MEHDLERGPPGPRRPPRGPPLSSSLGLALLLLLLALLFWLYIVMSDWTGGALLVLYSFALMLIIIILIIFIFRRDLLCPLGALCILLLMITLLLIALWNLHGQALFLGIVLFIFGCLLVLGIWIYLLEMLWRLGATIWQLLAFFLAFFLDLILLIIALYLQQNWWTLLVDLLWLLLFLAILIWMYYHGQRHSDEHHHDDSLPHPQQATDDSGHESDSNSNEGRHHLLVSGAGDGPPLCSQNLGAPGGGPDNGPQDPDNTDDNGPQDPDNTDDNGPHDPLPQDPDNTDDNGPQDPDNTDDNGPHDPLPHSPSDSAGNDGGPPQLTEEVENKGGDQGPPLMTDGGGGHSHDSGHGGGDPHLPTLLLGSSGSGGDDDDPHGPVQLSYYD
Eukaryotic translation initiation factor 4E, sequence (P63073 whole entry): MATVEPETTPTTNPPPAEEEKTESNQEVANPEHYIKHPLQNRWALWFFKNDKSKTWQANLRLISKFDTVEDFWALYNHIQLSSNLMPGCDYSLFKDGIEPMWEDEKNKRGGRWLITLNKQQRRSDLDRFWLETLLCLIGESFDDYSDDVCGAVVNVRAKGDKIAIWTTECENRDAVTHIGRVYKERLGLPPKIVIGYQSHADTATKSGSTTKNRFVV
Beta-galactosidase, sequence (Q8VNN2 whole entry): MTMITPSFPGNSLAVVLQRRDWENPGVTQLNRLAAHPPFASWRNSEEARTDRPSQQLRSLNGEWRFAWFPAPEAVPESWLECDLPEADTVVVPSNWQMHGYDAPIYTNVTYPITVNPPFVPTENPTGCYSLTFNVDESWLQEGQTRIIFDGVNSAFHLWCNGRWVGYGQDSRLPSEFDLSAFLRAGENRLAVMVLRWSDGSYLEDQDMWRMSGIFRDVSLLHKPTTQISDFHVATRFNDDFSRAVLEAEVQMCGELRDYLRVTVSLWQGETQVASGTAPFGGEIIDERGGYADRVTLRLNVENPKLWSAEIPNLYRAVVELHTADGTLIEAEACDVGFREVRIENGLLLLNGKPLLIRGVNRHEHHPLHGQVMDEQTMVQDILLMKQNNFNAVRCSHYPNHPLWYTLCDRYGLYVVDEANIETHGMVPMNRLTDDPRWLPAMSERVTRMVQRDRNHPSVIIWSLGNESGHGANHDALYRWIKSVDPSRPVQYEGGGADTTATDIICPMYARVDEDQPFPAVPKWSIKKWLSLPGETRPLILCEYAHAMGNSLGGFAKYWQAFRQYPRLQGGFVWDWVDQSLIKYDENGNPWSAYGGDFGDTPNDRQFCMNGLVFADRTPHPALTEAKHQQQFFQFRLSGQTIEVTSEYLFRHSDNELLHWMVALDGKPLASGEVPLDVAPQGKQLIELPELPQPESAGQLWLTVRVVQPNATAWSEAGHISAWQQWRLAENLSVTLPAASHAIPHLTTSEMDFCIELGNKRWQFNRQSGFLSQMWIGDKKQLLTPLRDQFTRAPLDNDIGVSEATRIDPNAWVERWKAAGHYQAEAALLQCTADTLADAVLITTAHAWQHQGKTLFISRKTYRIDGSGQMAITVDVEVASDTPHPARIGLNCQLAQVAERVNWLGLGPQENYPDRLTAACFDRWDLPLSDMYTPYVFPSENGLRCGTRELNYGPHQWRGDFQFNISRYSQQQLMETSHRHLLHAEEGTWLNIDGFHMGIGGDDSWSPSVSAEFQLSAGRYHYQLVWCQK
Lysine-specific demethylase 4C, sequence (Q9H3R0 whole entry): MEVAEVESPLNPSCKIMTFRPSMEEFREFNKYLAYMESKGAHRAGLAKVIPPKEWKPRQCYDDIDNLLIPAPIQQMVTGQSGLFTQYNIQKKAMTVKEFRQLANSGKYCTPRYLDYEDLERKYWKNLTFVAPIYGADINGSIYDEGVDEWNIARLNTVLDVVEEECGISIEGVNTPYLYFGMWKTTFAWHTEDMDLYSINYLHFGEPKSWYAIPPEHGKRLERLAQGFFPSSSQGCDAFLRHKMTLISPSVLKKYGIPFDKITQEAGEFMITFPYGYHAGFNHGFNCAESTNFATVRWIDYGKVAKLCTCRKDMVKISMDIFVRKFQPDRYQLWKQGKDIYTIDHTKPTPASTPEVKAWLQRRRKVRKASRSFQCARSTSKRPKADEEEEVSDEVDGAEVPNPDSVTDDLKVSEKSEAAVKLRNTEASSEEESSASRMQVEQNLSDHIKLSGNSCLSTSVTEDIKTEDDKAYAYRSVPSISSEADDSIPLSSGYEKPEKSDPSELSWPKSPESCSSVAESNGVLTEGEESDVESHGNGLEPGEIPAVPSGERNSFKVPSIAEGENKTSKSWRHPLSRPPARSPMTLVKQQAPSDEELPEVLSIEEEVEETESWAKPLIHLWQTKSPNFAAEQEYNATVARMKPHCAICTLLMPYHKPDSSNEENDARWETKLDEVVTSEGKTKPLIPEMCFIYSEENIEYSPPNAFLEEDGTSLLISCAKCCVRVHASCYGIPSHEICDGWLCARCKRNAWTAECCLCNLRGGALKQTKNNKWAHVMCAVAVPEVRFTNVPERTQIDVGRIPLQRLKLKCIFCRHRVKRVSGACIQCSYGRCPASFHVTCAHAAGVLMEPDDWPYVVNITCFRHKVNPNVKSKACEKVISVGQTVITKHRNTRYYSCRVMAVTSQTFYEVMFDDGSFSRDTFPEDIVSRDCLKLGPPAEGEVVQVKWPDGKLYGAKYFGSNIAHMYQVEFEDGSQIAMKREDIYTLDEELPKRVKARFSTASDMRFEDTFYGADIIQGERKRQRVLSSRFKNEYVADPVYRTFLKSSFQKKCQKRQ

Row | SMILES | IC50 [4] | AC50 [6] | AC50 [8] | EC50 [18] | EC50 [19] | CC50 [20] | EC50 [21] | EC50 [22] | further results
1 | C=CCN(CC=C)Cc1c(O)ccc2c1oc(=O)c1ccccc12 | 60.3 µM (active) | – | – | – | – | – | – | – | EC50 [1]: > 40 µM (inactive); IC50 [2]: > 40 µM (not active); AC50 [3]: 0.48 µM (active); AC50 [5]: 4.02 µM (active)
2 | CCCCC(=O)NC(c1ccc(OC)cc1)c1ccc2cccnc2c1O (stereo not given) | – | 15.8 µM (active) | 11.6 µM (active) | – | – | – | – | – | IC50 [7]: 21.7 µM (inactive); IC50 [9]: 3.22 µM (active); IC50 [10]: 5.25 µM (active); AC50 [11]: 2.28 µM (active); AC50 [12]: 5.14 µM (active); AC50 [13]: 8.8 µM (active)
3 | Cn1cccc1-c1cc(C(=O)N2CCc3c([nH]c4ccccc34)C2c2ccccn2)[nH]n1 (stereo not given) | – | 25.8 µM (active) | 21.6 µM (active) | – | – | – | – | – | EC50 [14]: 21.3 µM (active); EC50 [15]: 2.76 µM (active); IC50 [16]: 50 µM (inactive)
4 | NC(=O)C1CCN(C2=C(NS(=O)(=O)c3ccc(Br)cc3)C(=O)c3ccccc3C2=O)CC1 | 16.9 µM (active) | – | – | – | – | – | – | – | AC50 [17]: 11.9 µM (active)
5 | N#Cc1cc2ccccc2nc1SCC(=O)Nc1ccccc1N1CCOCC1 | – | – | – | 5.15 µM (active) | 17.5 µM (active) | > 99 µM (inactive) | > 99 µM (inactive) | > 99 µM (inactive) | –
6 | COc1cc(C(=O)Oc2cc(N)n(S(=O)(=O)c3ccc(F)cc3)n2)cc(OC)c1OC | – | – | – | 3.48 µM (active) | 14.8 µM (active) | 85.3 µM (active) | > 99 µM (inactive) | > 99 µM (inactive) | –
